Experimental data: US11987564B2, “PTPRD inhibitors and uses thereof” (United States Government as represented by the Department …, priority 2021, dated 2024)
pIC50: −log10 of the molar value. Where two headings read alike, the source gives them in different places.

Key:
PTPRS = PTPRS (Homo sapiens, UniProt Q13332); experiment: pNPP hydrolysis by recombinant PTPRS phosphatase; assay type: biochemical
Source text: (§1) Human […] ([…]-pY-[…]) phosphopeptide (Pierce/ThermoFisher) were synthesized.

PTPRJ = molecular target: T1, PTPRJ (Homo sapiens, UniProt Q12913); experiment: pNPP hydrolysis by PTPRJ phosphatase; assay type: biochemical
T1 construct: purchased
T1 sequence (Q12913 36-1337): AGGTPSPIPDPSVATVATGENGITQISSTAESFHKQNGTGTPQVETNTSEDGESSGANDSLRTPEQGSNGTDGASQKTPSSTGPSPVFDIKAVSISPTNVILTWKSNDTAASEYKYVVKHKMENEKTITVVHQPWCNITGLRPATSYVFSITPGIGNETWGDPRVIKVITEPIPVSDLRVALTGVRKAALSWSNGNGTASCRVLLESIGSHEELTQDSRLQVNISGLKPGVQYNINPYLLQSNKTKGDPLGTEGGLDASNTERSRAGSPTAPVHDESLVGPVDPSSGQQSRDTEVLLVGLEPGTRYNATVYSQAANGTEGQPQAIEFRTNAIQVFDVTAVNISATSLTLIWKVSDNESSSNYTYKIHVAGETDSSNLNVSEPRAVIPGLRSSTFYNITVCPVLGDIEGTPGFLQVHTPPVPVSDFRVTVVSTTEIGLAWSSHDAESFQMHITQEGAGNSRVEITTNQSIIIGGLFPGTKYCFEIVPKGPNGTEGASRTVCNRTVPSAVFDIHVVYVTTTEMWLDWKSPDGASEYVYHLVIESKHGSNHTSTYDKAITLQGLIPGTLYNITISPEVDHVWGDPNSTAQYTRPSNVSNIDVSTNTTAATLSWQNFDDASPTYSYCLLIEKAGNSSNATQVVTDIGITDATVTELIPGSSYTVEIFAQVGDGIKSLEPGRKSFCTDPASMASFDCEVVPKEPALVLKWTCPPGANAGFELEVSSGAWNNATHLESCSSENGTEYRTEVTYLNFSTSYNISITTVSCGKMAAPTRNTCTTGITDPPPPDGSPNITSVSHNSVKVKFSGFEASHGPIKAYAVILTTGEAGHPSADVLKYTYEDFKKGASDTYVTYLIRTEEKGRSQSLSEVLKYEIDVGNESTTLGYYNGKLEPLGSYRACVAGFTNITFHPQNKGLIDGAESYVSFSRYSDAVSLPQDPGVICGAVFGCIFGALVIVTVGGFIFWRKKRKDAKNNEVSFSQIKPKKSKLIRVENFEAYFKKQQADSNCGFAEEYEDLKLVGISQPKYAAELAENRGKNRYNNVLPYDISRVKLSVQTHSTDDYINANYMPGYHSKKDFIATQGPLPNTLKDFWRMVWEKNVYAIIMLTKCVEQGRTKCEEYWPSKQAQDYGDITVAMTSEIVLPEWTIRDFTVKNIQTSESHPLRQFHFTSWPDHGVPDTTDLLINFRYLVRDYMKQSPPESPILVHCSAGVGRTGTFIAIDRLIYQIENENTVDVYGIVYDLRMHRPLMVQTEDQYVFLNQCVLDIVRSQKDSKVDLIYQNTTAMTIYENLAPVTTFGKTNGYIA
Source text: as §1

PTPN1 (PTP1B) = molecular target: T2, PTPN1 (PTP1B) (Homo sapiens, UniProt P18031); experiment: pNPP hydrolysis by PTPN1 (PTP1B) phosphatase; assay type: biochemical; settings: untitled table after Table 4; mean, SEM in wrapped line
T2 construct: purchased
T2 sequence (P18031 1-435): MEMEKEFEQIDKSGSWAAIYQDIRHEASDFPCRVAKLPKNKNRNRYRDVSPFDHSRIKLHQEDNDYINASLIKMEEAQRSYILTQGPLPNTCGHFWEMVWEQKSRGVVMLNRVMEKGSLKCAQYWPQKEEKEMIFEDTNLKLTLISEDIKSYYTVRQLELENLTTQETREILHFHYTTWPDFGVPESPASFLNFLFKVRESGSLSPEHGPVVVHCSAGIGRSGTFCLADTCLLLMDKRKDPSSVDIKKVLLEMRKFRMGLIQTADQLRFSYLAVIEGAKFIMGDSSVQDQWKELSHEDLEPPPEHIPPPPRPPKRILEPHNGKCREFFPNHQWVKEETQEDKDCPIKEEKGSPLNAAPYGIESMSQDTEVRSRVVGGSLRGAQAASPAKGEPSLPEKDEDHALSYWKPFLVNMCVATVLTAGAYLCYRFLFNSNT

PTPRF = PTPRF (Homo sapiens, UniProt P10586); experiment: pNPP hydrolysis by recombinant PTPRF phosphatase
Protocol: (§2) Phosphatase assays: Data for each assay type (3 wells/experimental condition, read using a Spectromax plate reader) was plotted vs time, and results derived from the slopes of linear regions were reported from triplicate independent experiments.
(§3) For assays of compound ligands that were likely pseudo-irreversible, 18 min preincubations were also added. For work determining the effect of flavonoids on pNPP hydrolysis, a 96 well half-area plate was prepared by first filling each well to be tested with 18 μL of 50 μM pNPP and 25 uL of running buffer, and 2 μL of DMSO containing the desired concentration of flavonoid and/or peptide. PTPRD phosphatase was diluted 1:50 in a dilution buffer.

recombinant PTPRD = recombinant PTPRD (Homo sapiens, UniProt P23468); experiment: pNPP hydrolysis by recombinant PTPRD phosphatase
Protocol: as §2, §3

[1] = Table 4, mean (SEM) of three independent experiments, * = instability, no valid triplicate
[2] = untitled table after Table 4, mean, SEM in wrapped line
[3] = PTPRF IC50, Table 4, mean (SEM) of three independent experiments, * = instability, no valid triplicate
[4] = PTPRF IC50, untitled table after Table 4, mean, SEM in wrapped line
[5] = read-out: PTPRD IC50, untitled table after Table 4, mean, SEM in wrapped line, compounds with PTPRD IC50 <5 μM
[6] = PTPRD IC50, Table 4, mean (SEM) of three independent experiments, * = instability, no valid triplicate
[7] = PTPRD IC50, untitled table after Table 4, mean, SEM in wrapped line, compounds with PTPRD IC50 <5 μM

Sequence of PTPRS (Q13332 30-1948, species assumed): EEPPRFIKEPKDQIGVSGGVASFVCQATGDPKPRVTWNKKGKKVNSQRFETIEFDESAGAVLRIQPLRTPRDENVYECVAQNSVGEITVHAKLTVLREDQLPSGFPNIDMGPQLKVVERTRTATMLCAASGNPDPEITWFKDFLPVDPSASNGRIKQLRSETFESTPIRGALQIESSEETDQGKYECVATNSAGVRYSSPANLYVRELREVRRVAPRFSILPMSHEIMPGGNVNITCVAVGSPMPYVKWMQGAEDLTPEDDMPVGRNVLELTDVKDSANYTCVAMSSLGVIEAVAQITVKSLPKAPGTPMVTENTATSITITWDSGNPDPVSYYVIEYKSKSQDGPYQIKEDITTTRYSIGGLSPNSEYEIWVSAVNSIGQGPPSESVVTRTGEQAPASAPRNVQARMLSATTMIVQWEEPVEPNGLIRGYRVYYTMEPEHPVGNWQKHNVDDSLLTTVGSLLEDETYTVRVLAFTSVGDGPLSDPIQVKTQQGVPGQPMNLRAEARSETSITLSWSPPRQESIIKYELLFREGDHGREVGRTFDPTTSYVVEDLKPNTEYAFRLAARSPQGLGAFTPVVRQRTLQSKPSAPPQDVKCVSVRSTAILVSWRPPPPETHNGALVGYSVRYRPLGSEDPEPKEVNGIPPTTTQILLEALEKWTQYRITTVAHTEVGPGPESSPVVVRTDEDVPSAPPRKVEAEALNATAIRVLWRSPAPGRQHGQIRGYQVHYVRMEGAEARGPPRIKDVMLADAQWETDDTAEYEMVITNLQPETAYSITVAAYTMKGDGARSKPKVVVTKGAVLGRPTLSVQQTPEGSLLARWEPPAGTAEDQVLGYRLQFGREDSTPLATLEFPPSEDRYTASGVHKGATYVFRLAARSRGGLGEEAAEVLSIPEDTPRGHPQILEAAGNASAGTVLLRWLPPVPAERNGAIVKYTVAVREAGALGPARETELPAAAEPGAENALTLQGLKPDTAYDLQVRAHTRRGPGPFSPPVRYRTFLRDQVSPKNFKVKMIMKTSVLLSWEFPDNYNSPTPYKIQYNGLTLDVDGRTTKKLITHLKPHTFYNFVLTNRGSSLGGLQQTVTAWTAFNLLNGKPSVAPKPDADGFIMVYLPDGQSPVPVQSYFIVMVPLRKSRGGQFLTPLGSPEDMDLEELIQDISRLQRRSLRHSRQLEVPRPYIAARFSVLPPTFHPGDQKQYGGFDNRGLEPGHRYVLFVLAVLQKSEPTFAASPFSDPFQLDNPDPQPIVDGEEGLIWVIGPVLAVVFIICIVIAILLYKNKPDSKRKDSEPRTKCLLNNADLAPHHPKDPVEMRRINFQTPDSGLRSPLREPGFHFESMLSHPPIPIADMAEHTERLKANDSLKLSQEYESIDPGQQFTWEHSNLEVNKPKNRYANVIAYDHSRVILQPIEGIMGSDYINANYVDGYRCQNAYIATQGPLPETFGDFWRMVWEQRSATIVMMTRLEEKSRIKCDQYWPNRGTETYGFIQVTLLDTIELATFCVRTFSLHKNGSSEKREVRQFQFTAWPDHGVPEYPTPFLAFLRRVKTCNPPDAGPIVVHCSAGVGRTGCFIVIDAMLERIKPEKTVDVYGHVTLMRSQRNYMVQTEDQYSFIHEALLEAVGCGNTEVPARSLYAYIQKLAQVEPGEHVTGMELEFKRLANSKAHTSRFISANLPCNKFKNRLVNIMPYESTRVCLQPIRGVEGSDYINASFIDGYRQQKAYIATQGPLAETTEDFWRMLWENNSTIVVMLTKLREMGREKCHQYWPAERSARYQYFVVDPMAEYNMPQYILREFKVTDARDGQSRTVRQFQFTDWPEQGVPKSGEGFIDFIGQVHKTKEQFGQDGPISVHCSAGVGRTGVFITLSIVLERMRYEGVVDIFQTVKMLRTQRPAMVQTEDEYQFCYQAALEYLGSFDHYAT
Sequence of PTPRF (P10586 30-1907, species assumed): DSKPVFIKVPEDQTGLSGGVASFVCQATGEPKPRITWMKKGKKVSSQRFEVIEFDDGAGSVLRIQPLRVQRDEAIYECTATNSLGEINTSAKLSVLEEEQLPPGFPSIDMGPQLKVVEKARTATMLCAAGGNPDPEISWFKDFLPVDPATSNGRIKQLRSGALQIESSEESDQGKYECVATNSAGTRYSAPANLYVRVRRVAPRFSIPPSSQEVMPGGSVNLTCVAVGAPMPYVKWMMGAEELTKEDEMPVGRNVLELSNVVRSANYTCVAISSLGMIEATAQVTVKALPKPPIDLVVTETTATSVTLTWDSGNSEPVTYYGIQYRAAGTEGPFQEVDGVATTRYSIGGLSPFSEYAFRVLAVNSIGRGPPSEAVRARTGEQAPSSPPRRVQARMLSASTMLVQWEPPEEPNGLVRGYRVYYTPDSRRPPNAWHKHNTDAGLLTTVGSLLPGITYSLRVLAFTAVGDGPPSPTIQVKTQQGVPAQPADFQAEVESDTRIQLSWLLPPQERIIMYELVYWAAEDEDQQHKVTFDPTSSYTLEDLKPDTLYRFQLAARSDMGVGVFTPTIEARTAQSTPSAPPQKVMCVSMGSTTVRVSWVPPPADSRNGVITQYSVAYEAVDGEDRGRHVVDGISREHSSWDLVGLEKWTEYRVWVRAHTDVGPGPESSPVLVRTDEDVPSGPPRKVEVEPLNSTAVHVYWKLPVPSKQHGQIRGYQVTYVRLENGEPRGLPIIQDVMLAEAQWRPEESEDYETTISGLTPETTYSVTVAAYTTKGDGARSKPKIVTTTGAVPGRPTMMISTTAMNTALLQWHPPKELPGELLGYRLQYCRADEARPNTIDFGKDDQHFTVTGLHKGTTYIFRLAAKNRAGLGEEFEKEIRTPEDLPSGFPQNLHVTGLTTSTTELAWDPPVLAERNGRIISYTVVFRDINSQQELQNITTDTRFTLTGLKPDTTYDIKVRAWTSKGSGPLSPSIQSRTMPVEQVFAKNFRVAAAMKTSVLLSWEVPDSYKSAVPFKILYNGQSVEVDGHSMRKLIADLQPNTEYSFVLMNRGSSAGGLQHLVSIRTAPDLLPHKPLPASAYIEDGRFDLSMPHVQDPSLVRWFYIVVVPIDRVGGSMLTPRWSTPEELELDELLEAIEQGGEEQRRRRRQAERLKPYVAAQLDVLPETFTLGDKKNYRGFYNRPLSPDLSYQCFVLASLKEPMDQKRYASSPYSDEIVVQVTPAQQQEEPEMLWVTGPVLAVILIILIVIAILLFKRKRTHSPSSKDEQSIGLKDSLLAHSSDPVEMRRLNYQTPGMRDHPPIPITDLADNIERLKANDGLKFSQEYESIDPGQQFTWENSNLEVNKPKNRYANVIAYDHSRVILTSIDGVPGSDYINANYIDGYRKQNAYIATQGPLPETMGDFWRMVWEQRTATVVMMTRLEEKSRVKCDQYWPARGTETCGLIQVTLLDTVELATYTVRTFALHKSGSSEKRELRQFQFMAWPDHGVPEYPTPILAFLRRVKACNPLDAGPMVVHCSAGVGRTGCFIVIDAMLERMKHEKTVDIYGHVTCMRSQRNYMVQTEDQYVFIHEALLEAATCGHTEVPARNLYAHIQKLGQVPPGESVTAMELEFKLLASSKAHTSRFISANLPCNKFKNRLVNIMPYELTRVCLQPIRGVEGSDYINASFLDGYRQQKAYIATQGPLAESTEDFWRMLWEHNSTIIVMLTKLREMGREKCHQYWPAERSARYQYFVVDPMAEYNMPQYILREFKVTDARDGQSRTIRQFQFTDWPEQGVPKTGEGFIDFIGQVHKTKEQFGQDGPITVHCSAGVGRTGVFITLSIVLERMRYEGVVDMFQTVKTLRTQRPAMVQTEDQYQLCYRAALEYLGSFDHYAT

| Compound | pIC50 (PTPRS; [1]) | pIC50 (PTPRS; [2]) | pIC50 (PTPRJ; [1]) | pIC50 (PTPRJ; [2]) | pIC50 (PTPN1 (PTP1B)) | pIC50 (PTPRF; [3]) | pIC50 (PTPRF; [4]) | pIC50 (recombinant PTPRD; read-out: PTPRD IC50, Table 4, mean (SEM) of three independent experiments, * = instability, no valid triplicate) | pIC50 (recombinant PTPRD; [5]) | pIC50 (recombinant PTPRD; [6]) | pIC50 (recombinant PTPRD; [7]) |
| --- | --- | --- | --- | --- | --- | --- | --- | --- | --- | --- | --- |
| CCCCOc1cc2c(c(C=O)c1OC)CC(O)OC2=O (stereo not shown) [Compound 1, reference compound] | 5.90 | 5.90 | 4.56 | 4.56 | 3.67 | 5.40 | 5.40 | 5.64 | 5.64 |  |  |
| COc1c(OCc2ccccc2)cc2c(c1C=O)CC(O)OC2=O (stereo not shown) [Compound 27, 7-(Benzyloxy)-3-hydroxy-6-methoxy-1-oxoisochromane-5-carbaldehyde] | 5.80 | 5.80 | 4.33 | 4.33 | 3.77 | 5.44 | 5.44 |  | 5.79 |  |  |
| COc1c(OCc2ccc(C)cc2)cc2c(c1C=O)CC(O)OC2=O (stereo not shown) [Compound 29, 3-Hydroxy-6-methoxy-7-((4-methylbenzyl)oxy)-1-oxoisochromane-5-carbaldehyde] | 5.45 | 5.45 | 4.42 | 4.42 | 3.83 | 5.18 | 5.18 |  |  | 5.42 | 5.42 |
| COc1cccc(COc2cc3c(c(C=O)c2OC)CC(O)OC3=O)c1 (stereo not shown) [Compound 31, 3-Hydroxy-6-methoxy-7-((3-methoxybenzyl)oxy)-1-oxoisochromane-5-carbaldehyde] | 4.89 | 5.49 |  | 4.20 | 3.69 |  | 5.24 |  |  | 5.39 | 5.25 |
| COc1c(OCc2ccc(Br)cc2)cc2c(c1C=O)CC(O)OC2=O (stereo not shown) [Compound 39, 7-((4-Bromobenzyl)oxy)-3-hydroxy-6-methoxy-1-oxoisochromane-5-carbaldehyde] | 5.30 | 5.30 | 4.52 | 4.52 |  | 5.42 | 5.42 |  |  |  |  |
| COc1c(OCc2ccc(Cl)cc2Cl)cc2c(c1C=O)CC(O)OC2=O (stereo not shown) [Compound 40, 7-((2,4-Dichlorobenzyl)oxy)-3-hydroxy-6-methoxy-1-oxoisochromane-5-carbaldehyde] | 5.99 | 5.99 | 4.84 | 4.84 | 4.12 | 5.45 | 5.45 |  |  |  |  |
| COc1c(OCc2c(Cl)cc(Cl)cc2Cl)cc2c(c1C=O)CC(O)OC2=O (stereo not shown) [Compound 42] | 5.67 | 5.66 | 4.63 | 4.63 | 4.54 |  |  |  |  | 5.61 | 5.60 |
| COc1c(OCc2ccc(Oc3ccccc3)cc2)cc2c(c1C=O)CC(O)OC2=O (stereo not shown) [Compound 43, 3-Hydroxy-6-methoxy-1-oxo-7-((4-phenoxybenzyl)oxy)isochromane-5-carbaldehyde] | 5.87 | 5.87 | 4.55 | 4.55 | 4.78 | 5.41 | 5.41 |  |  | 5.80 | 5.80 |
| COc1c(OCc2ccc(Oc3ccc(F)cc3)cc2)cc2c(c1C=O)CC(O)OC2=O (stereo not shown) [Compound 44, 7-((4-(4-Fluorophenoxy)benzyl)oxy)-3-hydroxy-6-methoxy-1-oxoisochromane-5-carbaldehyde] |  |  |  |  |  |  |  |  |  | 5.60 | 5.60 |
